No end group written: not given here. *: point of attachment. Palmitoyl = CCCCCCCCCCCCCCCC(=O)*
Columns and labels:
TRPV6 = conditions: physiologically relevant concentrations; ref [19],[59]; cited from earlier work
TRPV6 WT = target: T1, TRPV6 WT (Homo sapiens, UniProt Q9H1D0); assay: Fura-2 Ca2+ imaging, TRPV6 WT; format: cell-based; conditions: HEK293 cells; 20 μM control peptide; effect likely attributable to ongoing channel inactivation
T1 construct: expressed in transfected cells; host or cells: HEK293 cells, transient transfection
T1 sequence (Q9H1D0 41-765 limits assumed): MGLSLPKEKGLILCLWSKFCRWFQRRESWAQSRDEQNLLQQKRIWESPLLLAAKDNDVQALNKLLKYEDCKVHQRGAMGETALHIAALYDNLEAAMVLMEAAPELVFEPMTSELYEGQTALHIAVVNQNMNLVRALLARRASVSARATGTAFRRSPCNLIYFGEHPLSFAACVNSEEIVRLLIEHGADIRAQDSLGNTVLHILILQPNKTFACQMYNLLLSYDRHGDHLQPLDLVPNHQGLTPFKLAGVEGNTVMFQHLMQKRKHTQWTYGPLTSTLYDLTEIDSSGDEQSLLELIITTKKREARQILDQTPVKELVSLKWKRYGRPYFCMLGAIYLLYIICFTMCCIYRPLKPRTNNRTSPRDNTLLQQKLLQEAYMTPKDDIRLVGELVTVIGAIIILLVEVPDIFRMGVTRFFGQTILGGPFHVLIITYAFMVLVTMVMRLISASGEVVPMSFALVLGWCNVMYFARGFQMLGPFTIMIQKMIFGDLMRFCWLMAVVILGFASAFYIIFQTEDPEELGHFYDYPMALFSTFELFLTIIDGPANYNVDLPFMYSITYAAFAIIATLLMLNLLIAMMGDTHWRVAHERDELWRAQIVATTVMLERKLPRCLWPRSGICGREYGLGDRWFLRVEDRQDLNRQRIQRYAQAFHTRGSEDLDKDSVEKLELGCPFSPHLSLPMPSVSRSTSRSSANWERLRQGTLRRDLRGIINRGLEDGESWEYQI

| Substance | activation of TRPV6 (TRPV6) | decrease in cytosolic Ca2+ level (in words) (TRPV6 WT) |
| --- | --- | --- |
| phosphatidylinositol-4-phosphate [PI(4)P] | does not activate TRPV6 |  |
| Palmitoyl-HAQKHFEAAA [control peptide, palmitoylated peptide having four of the basic residues of the pal-PIP2 peptide replaced by alanine] |  | slow, continuous reduction |

Source: publication PMC10779433, “Bidirectional Allosteric Coupling between PIP2 Binding and the Pore of the Oncochannel TRPV6” (International Journal of Molecular Sciences, 2024)
